We go through 14 molecules from patent US20240360126A1, “PYRAZOLO[3,4-B]PYRIDINE COMPOUNDS FOR THE TREATMENT OF AUTOIMMUNE DISEASE” (Hoffmann-La Roche Inc., priority 2021, published 2024).

Molecules are shown by their SMILES.

This assay deals with T1, human TLR8 (Homo sapiens, UniProt Q9NR97).
T1 construct: host or cells: HEK293 (HEK-Blue hTLR8)
T1 sequence (Q9NR97 27-1041): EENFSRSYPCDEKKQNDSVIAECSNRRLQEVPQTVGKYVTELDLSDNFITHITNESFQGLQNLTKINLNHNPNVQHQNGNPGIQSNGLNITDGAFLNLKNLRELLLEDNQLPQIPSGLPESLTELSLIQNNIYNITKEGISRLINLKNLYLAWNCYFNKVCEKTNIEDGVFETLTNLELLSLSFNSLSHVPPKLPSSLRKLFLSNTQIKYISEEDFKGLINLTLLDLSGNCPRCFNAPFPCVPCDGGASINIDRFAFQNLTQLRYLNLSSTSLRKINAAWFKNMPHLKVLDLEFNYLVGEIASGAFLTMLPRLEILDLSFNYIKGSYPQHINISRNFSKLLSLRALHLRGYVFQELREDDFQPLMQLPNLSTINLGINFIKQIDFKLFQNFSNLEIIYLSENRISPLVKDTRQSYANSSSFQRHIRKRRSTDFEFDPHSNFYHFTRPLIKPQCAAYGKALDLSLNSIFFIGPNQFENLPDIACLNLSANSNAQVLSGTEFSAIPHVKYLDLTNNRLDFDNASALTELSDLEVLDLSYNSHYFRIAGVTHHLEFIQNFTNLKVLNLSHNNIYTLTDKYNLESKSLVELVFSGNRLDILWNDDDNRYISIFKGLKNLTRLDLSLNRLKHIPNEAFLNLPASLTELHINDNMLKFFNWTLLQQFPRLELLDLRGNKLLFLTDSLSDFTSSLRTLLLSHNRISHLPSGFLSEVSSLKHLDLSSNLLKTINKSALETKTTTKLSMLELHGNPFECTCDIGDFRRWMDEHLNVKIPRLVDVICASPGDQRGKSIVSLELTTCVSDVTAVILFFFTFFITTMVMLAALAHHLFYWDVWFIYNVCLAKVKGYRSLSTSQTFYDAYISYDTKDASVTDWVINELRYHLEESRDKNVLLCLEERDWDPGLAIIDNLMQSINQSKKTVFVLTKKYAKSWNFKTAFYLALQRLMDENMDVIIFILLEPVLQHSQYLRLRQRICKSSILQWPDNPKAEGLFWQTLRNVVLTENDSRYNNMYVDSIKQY
In words: HEK293-Blue-hTLR-8 cells assay. It is filed as cell-based. The note with it: HEK293-Blue-hTLR8 cells, R848 stimulation, 20 hrs; read-out: HEK/hTLR8 IC50. From the text: A stable HEK293-Blue-hTLR-8 cell line was purchased from InvivoGen (Cat. #: hkb-htlr8, San Diego, California, USA). These cells were originally designed for studying the stimulation of human TLR8 by monitoring the activation of NF-κB. A SEAP (secreted embryonic alkaline phosphatase) reporter gene was placed under the control of the IFN-β minimal promoter fused to five NF-κB and AP-1-binding sites. The SEAP was induced by activating NF-κB and AP-1 via stimulating HEK-Blue hTLR8 cells with TLR8 ligands. Therefore the reporter expression was declined by TLR8 antagonist under the stimulation of a ligand, such as R848, for incubation of 20 hrs. The cell culture supernatant SEAP reporter activity was determined using QUANTT-BlueTv™ kit (Cat. #: rep-qbl, Invivogen, San Diego, Ca, USA) at a wavelength of 640 nm, a detection medium that turns purple or blue in the presence of alkaline phosphatase.
HEK293-Blue-hTLR8 cells were incubated at a density of 250,000˜450,000 cells/mL in a volume of 170 μL in a 96-well plate in Dulbecco's Modified Eagle's medium (DMEM) containing 4.5 g/L glucose, 50 U/mi penicillin, […] streptomycin, […], 2 mM L-glutamine, 10% (v/v) heat-inactivated fetal bovine serum with addition of 20 μL test compound in a serial dilution in the presence of final DMSO at 1% and 10 μL of 60 μM R848 in above DMEM, perform incubation under 37° C. in a CO2 incubator for 20 hrs. Then 20 μL of the supernatant from each well was incubated with 180 μL Quanti-blue substrate solution at 37° C. for 2 hrs and the absorbance was read at 620-655 nm using a spectrophotometer. The signaling pathway that TLR8 activation leads to downstream NF-κB activation has been widely accepted, and therefore similar reporter assay was modified for evaluating TLR8 antagonist.
`Cc1cc(N2CC[C@@H](c3ncc(N4CCOC[C@@H](N)C4)cc3C)[C@H](C)C2)c2cnn(C)c2n1` [Example 28, (6S)-4-[6-[(3S,4R)-1-(1,6-dimethylpyrazolo[3,4-b]pyridin-4-yl)-3-methyl-4-piperidyl]-5-methyl-3-pyridyl]-1,4-oxazepan-6-amine]: the IC50 came out at 2 nM.

In the case of `COC[C@H]1CN(c2cnc([C@@H]3CCN(c4cc(C)nc5c4cnn5C)C[C@H]3C)c(C)c2)CCN1` [Example 29, 4-[(3S,4R)-4-[5-[(3R)-3-(methoxymethyl)piperazin-1-yl]-3-methyl-2-pyridyl]-3-methyl-1-piperidyl]-1,6-dimethyl-pyrazolo[3,4-b]pyridine], the IC50 came out at 8 nM.

On to `Cc1cc(N2CC[C@@H](c3ncc(N4CC[C@@H](N)[C@H](F)C4)cc3C)[C@H](C)C2)c2cnn(C)c2n1` [Example 31, (3R,4R)-1-[6-[(3S,4R)-1-(1,6-dimethylpyrazolo[3,4-b]pyridin-4-yl)-3-methyl-4-piperidyl]-5-methyl-3-pyridyl]-3-fluoro-piperidin-4-amine], for which the IC50 was determined as 9 nM.

With `Cc1cc(N2CC[C@@H](c3ncc(N4CC(C)(N)C4)cc3C)[C@H](C)C2)c2cnn(C)c2n1` [Example 32, 1-[6-[(3S,4R)-1-(1,6-dimethylpyrazolo[3,4-b]pyridin-4-yl)-3-methyl-4-piperidyl]-5-methyl-3-pyridyl]-3-methyl-azetidin-3-amine], the IC50 is 15 nM.

As for `Cc1cc(N2CC[C@@H](c3ncc(N4C[C@H]5NCCO[C@@H]5C4)cc3C)[C@H](C)C2)c2cnn(C)c2n1` [Example 33, (4aR,7aR)-6-[6-[(3S,4R)-1-(1,6-dimethylpyrazolo[3,4-b]pyridin-4-yl)-3-methyl-4-piperidyl]-5-methyl-3-pyridyl]-3,4,4a,5,7,7a-hexahydro-2H-pyrrolo[3,4-b][1,4]oxazine], the IC50 amounted to 3 nM.

Regarding `Cc1cc(N2CC[C@@H](c3ccc(N4CCNCC4)cn3)[C@H](C)C2)c2cnn(C)c2n1` [Example 34, 1,6-dimethyl-4-[(3S,4R)-3-methyl-4-(5-piperazin-1-yl-2-pyridyl)-1-piperidyl]pyrazolo[3,4-b]pyridine], the IC50 was 11 nM.

For the molecule `Cc1cc(N2CC[C@H](c3ccc(N4CCNCC4)cn3)[C@@H](C)C2)c2cnn(C)c2n1` [Example 35, 1,6-dimethyl-4-[(3R,4S)-3-methyl-4-(5-piperazin-1-yl-2-pyridyl)-1-piperidyl]pyrazolo[3,4-b]pyridine], the IC50 was determined as 9 nM.

As to `CO[C@@H]1CN(c2ccc([C@H]3CCN(c4cc(C)nc5c4cnn5C)C[C@@H]3C)nc2)C[C@H]1N` [Example 36, (3R,4R)-1-[6-[(3R,4S)-1-(1,6-dimethylpyrazolo[3,4-b]pyridin-4-yl)-3-methyl-4-piperidyl]-3-pyridyl]-4-methoxy-pyrrolidin-3-amine], the IC50 was determined as 21 nM.

Regarding `COC[C@H]1CN(c2ccc([C@H]3CCN(c4cc(C)nc5c4cnn5C)C[C@@H]3C)nc2)CCN1` [Example 37, 4-[(3R,4S)-4-[5-[(3R)-3-(methoxymethyl)piperazin-1-yl]-2-pyridyl]-3-methyl-1-piperidyl]-1,6-dimethyl-pyrazolo[3,4-b]pyridine], the IC50 came out at 13 nM.

As to `Cc1cc(N2CC[C@H](c3ccc(N4CC5(CNCCO5)C4)cn3)[C@@H](C)C2)c2cnn(C)c2n1` [Example 38, 2-[6-[(3R,4S)-1-(1,6-dimethylpyrazolo[3,4-b]pyridin-4-yl)-3-methyl-4-piperidyl]-3-pyridyl]-5-oxa-2,8-diazaspiro[3.5]nonane], the IC50 was determined as 11 nM.

On to `CO[C@H]1CN(c2ccc([C@H]3CCN(c4cc(C)nc5c4cnn5C)C[C@@H]3C)nc2)CC[C@@H]1N` [Example 39, (3S,4S)-1-[6-[(3R,4S)-1-(1,6-dimethylpyrazolo[3,4-b]pyridin-4-yl)-3-methyl-4-piperidyl]-3-pyridyl]-3-methoxy-piperidin-4-amine], for which the IC50 was 10 nM.

Regarding `Cc1cc(N2CC[C@H](c3ccc(N4CCOC[C@@H](N)C4)cn3)[C@@H](C)C2)c2cnn(C)c2n1` [Example 40, (6S)-4-[6-[(3R,4S)-1-(1,6-dimethylpyrazolo[3,4-b]pyridin-4-yl)-3-methyl-4-piperidyl]-3-pyridyl]-1,4-oxazepan-6-amine], the IC50 amounted to 7 nM.

As for `Cc1cc(N2CC[C@H](c3ccc(N4CC[C@@H](N)[C@H](F)C4)cn3)[C@@H](C)C2)c2cnn(C)c2n1` [Example 41, (3R,4R)-1-[6-[(3R,4S)-1-(1,6-dimethylpyrazolo[3,4-b]pyridin-4-yl)-3-methyl-4-piperidyl]-3-pyridyl]-3-fluoro-piperidin-4-amine], the IC50 was determined as 10 nM.

On to `Cc1cc(N2CC[C@H](c3ccc(N4CC(C)(N)C4)cn3)[C@@H](C)C2)c2cnn(C)c2n1` [Example 43, 1-[6-[(3R,4S)-1-(1,6-dimethylpyrazolo[3,4-b]pyridin-4-yl)-3-methyl-4-piperidyl]-3-pyridyl]-3-methyl-azetidin-3-amine], for which the IC50 amounted to 6 nM.
